In one series the test system is NALM-21. The series is described as follows: In vitro cytotoxic activity (CellTiterGlo), NALM-21 (ALL). It counts as cell-based. The settings on record: Homo sapiens; 48-hours; read-out: NALM-21 LD50. On the procedure: (§1) Non-metabolized targeted toxicity, or general toxicity, of compounds was assessed by treating a panel of selected cell lines in culture with a dilution series of test compounds and the lethal dose that will kill half of the cells (i.e., the LD50) was determined. Compounds herein were assayed against a panel of cytokine-independent Philadelphia chromosome (BCR-ABL1 translocation) positive (Ph+) leukemia and lymphoma cell lines along with several control cell lines that were ABL1-independent. The panel included murine cell lines BaF3-wildtype (wt), BaF3-mutants (BaF3-wt cells engineered to be reliant on various kinase domain mutations with the BCR-ABL1 fusion protein), and various ALL and CML human cell lines, including SD-1, TOM-1, NALM-21, K562, Jeko-1, BV173, and KCL-22.
(§2) To test the cytotoxic activity of compounds herein, 1.6E4 cells were plated in 96-well plates at a final volume of 135 μL per well. Compounds were then added to the wells. In general, final concentrations of compounds started at a maximum concentration of […] and were diluted by half-log concentrations down to a final concentration of 0.316 nM. However, different cell lines required varying drug concentration ranges for optimal LD50 calculations. To create half-log dilutions, 40 mM DMSO solutions of compounds were diluted in half-log iterations to generate 400× starting concentration of compounds in DMSO. The 400× compound solutions were then diluted by 40-fold by adding 5 μL of 400× DMSO stock to 195 μL cell culture media, generating 10× drug concentrations in cell culture media. Then 15 μL of the 10× drug solutions were added to the 135 μL volume of cell suspension, resulting in 1× final drug concentrations with 0.25% DMSO in all wells. 48-hours after adding compounds, cells were measured for relative viability to generate cytotoxicity curves associated with the varying concentrations of compounds. […] LD50 values were measured by normalizing luminescence intensity to the lowest drug concentration. GraphPad Prism was used to plot and calculate LD50 values from the cytotoxic kill curves. Curves were fit to a non-linear regression model, with compound concentration vs. response and variable slope (four parameters).
On the technique in general: ATP-based viability assays read luminescence as a measure of living cells.

For the next series, the system named is K562. Nature of the series: In vitro cytotoxic activity (CellTiterGlo), K562 (CML). It counts as cell-based. The conditions noted are these: Homo sapiens, 48-hours, read-out: K562 LD50. On the procedure: as §1, §2
Series [1] in a line: non-GLP multi-dose toxicity study (dose escalation, daily IP injection). The settings on record: mice. In kind it is in vivo, mouse (6-week-old Balb/c females). On the procedure:
An initial non-GLP multi-dose toxicity study of Cmpd11 and Cmpd66 was performed, which included a comparison to COM1 and COM3 clinical compounds. […] Body weights were recorded 2× weekly for healthy mice followed by weekly in the recovery phase. Blood draws were taken, retro-orbitally, every other week (for a total of three blood draws per group) to determine the plasma levels of compounds throughout the duration of the study (unless mice were euthanized prior to completion of the 28-day dosing period). […] Any animals showing more than 9% weight loss were weighed every day and animals were euthanized after a weight loss of 15% or more or evidence of high distress (e.g., listless, hunched posture, high grimace score). Also, plasma samples were drawn at euthanasia. Control groups included vehicle only and no manipulation.
A summary of the study is illustrated in FIG. 14. There are six groups with 90 mice total and following is an overview of groups for the study.
The following are criteria for dose escalation and staggering of group starting points. Animals in each group are monitored after the initial dose for 3-4 days, and if there is no observed dose-limiting toxicity (DLT), then a separate cohort of naïve animals are administered the next higher dose level. Note that each cohort of animals receives the same drug and drug dose for the duration of the 28-day dosing period unless euthanasia is required. Animals in the second, dose-escalated group, are then monitored for 3-4 days, and if there is no observed DLT, animals from a fresh cohort are administered the next higher dose level, while continuing with the former cohorts up to 5 dose levels total. Animals in each cohort then are monitored after the third dose for 7 days, and if there is no observed DLT, then animals are administered the next higher doses. If DLT is observed during a monitoring period for any dose level, a subsequent dose is reduced by a level that is intermediate between the highest tolerated level tested and the minimum toxic level tested.

Take `Cc1ccc(Nc2ncc3cccc(-c4ccc(F)cc4OC(C)C)c3n2)cc1NC(=O)c1ccc(C(=O)N(C)C)cc1` [Cmpd11, N1-(5-((8-(4-fluoro-2-isopropoxyphenyl)quinazolin-2-yl)amino)-2-methylphenyl)-N4,N4-dimethylterephthalamide]: the IC50 was found to be 446 nM in the series with NALM-21 and 403 nM with K562. Further, in series [1] (at doses required to reach the in vitro K562-Luc EC50 plasma levels in vivo, early results), the “tolerability relative to COM1” value was “more tolerable than COM1”. Besides, the tolerability result in series [1] (daily IP, 1.5 mg/kg, through day 24) is “well tolerated”; in series [1] (daily IP, 4.5 mg/kg, through day 14), “well tolerated”. Moreover, the mortality at 168 h in series [1] (mouse, in vivo, daily IP, 18 mg/kg (12X EC50), by day 7, read-out: expiration of animals (2 out of 5)) came to 40%.

For the origin of these results see patent US20260297035A1, “PROTEIN KINASE INHIBITORS AND USES THEREOF” (DELiver Therapeutics, Inc., priority 2023, published 2026).
